Read-outs that look alike come from different tables or passages of the source.
Key:
[1] = Pharmacokinetic studies in rats; assay type: in vivo, rat; details: for oral bioavailability / oral pharmacokinetics in rats (in words): oral dosing
Method: Pharmacokinetic studies on MDM2 inhibitors were carried out in rat. For comparison, the MDM2 inhibitor, AT-219, was also studied.

[2] = In vitro microsomal stability, rat; assay type: in vitro ADME; details: for microsomal stability (in words) / % of compound remaining when incubated in rat liver microsomes with NADPH: rat liver microsomes; for Microsomal stability, % remaining: Rat Microsome, same batch; for half-life: rat, liver microsomes, rat liver microsomes with NADPH
[3] = biological target: recombinant human His-tagged MDM2 protein (residues 1-118) (Homo sapiens (Human), UniProt Q00987); assay: Fluorescence-polarization MDM2 binding assay; details: Table 19A; FP binding assay; read-out: MDM2 IC50;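 also: fluorescence polarization read after three hours of incubation in potassium phosphate buffer containing bovine gamma globulin and Triton X-100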
[4] = test system: Isogenic HCT-116 colon cancer cell lines; assay: cells; assay type: cell-based; details: Homo sapiens, cell growth;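 also: cells grown in 96-well plates in McCoy's 5A medium with 10% FBS, exposed to compound for 4 days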
Method: Cells were seeded in 96-well flat bottom cell culture plates at a density of 2−3×10^3 cells/well with compounds and incubated for 4 days.

[5] = In vitro microsomal stability, human; assay type: in vitro ADME; details: for Microsomal stability, % remaining: Human Microsome, same batch; for half-life: human, liver microsomes, human liver microsomes with NADPH
[6] = test system: cancer cell lines with wild-type p53 / mutated or deleted p53 (ATCC); assay: Cell growth assay (WST-8), other cancer cell lines; assay type: cell-based; details: Homo sapiens
[7] = HCT-116, read-out: HCT-116 (p53-/-) IC50, Table 19A, HCT-116 p53-/-
[8] = HCT-116, read-out: HCT-116 (p53 wild-type) IC50, Table 19A, HCT-116 p53 wild-type
[9] = rat, plasma, male rats, oral dose 15 mg/kg
[10] = LNCaP, Table 19A, LNCAP cells, p53 wild-type, cell growth, read-out: LNCAP (p53 wild-type) IC50
[11] = PC-3, Table 19A, PC-3 cells, deleted p53, cell growth, read-out: PC-3 (deleted p53) IC50
[12] = SJSA-1, Table 19A, SJSA-1 cells, p53 wild-type, cell growth, read-out: SJSA-1 (p53 wild-type) IC50

Chain of recombinant human His-tagged MDM2 protein (residues 1-118) (Q00987 1-118): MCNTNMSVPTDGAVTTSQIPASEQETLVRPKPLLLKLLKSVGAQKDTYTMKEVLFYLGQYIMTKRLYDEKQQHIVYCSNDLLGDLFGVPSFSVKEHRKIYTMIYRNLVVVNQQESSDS

## CN1CCN(CCNC(=O)C2NC(CC(C)(C)C)C3(C(=O)Nc4cc(Cl)ccc43)C2c2cccc(Cl)c2F)CC1 (stereo not shown) [MI-126]
[1]; male rats, oral dose 25 mg/kg
  % F: 31%
  Cmax: 274 ± 82 ng/mL
  T1/2: 3.8 ± 0.5 h
[1]
  oral bioavailability / oral pharmacokinetics in rats (in words): much inferior oral pharmacokinetic parameters
[2]; Table 16, 0 min
  % of compound remaining when incubated in rat liver microsomes: 100%
[2]; Table 16, 4 min
  % of compound remaining when incubated in rat liver microsomes: 88.4%
[2]; Table 16, 6 min
  % of compound remaining when incubated in rat liver microsomes: 77.2%
[2]; Table 16, 10 min
  % of compound remaining when incubated in rat liver microsomes: 65.6%
[2]; Table 16, 15 min
  % of compound remaining when incubated in rat liver microsomes: 62.3%
[2]; Table 16, 30 min
  % of compound remaining when incubated in rat liver microsomes: 60.4%
[2]
  microsomal stability (in words): improved rat microsomal stability over MI-219

## CN1CCC(CCNC(=O)C2NC(CC(C)(C)C)C3(C(=O)Nc4cc(Cl)ccc43)C2c2cccc(Cl)c2F)CC1 (stereo not shown) [MI-122]
[1]; male rats, oral dose 25 mg/kg
  % F: 14%
  Cmax: 120 ± 112 ng/mL
  T1/2: 7.1 ± 1.8 h
[1]
  oral bioavailability / oral pharmacokinetics in rats (in words): much inferior oral pharmacokinetic parameters
[2]; Table 16, 0 min
  % of compound remaining when incubated in rat liver microsomes: 100%
[2]; Table 16, 4 min
  % of compound remaining when incubated in rat liver microsomes: 96.3%
[2]; Table 16, 6 min
  % of compound remaining when incubated in rat liver microsomes: 95.6%
[2]; Table 16, 10 min
  % of compound remaining when incubated in rat liver microsomes: 87.8%
[2]; Table 16, 15 min
  % of compound remaining when incubated in rat liver microsomes: 86.5%
[2]; Table 16, 30 min
  % of compound remaining when incubated in rat liver microsomes: 82.7%
[2]
  microsomal stability (in words): improved rat microsomal stability over MI-219

## CC(C)(C)C[C@H]1N[C@@H](C(=O)NCC[C@H](O)CN2CCCC2)[C@H](c2cccc(Cl)c2)[C@@]12C(=O)Nc1cc(Cl)c(F)cc12 [MI-519-28]
[3]
  IC50: < 2 µM
[4]; [7]
  IC50: > 5 µM
[4]; [8]
  IC50: < 2 µM
[1]
  oral bioavailability / oral pharmacokinetics in rats (in words): much inferior oral pharmacokinetic parameters
[1]; [9]
  bioavailability: 8.4%
  half-life: 1.6 ± 0.2 h
[1]; rat, plasma, male rats, oral dose 15 mg/kg, read-out: AUC(0-t)
  AUC(0-t): 419 ± 239 µg·h/mL
[1]; rat, plasma, male rats, oral dose 15 mg/kg, read-out: Cmax
  Cmax: 102 ± 46 ng/mL
[5]; 0 min
  Microsomal stability, % remaining: 100.00%
[5]; 5 min
  Microsomal stability, % remaining: 91.87%
[5]; 10 min
  Microsomal stability, % remaining: 89.02%
[5]; 15 min
  Microsomal stability, % remaining: 77.40%
[5]; 30 min
  Microsomal stability, % remaining: 66.83%
[5]; 45 min
  Microsomal stability, % remaining: 55.85%
[5]; 60 min
  Microsomal stability, % remaining: 53.78%
[5]; human liver microsomes
  microsomal stability (in words): improved stability over MI-219
[5]; human liver microsomes, 0 min
  % of compound remaining when incubated in human liver microsomes with NADPH: 100.00%
[5]; human liver microsomes, 5 min
  % of compound remaining when incubated in human liver microsomes with NADPH: 91.87%
[5]; human liver microsomes, 10 min
  % of compound remaining when incubated in human liver microsomes with NADPH: 89.02%
[5]; human liver microsomes, 15 min
  % of compound remaining when incubated in human liver microsomes with NADPH: 77.40%
[5]; human liver microsomes, 30 min
  % of compound remaining when incubated in human liver microsomes with NADPH: 66.83%
[5]; human liver microsomes, 45 min
  % of compound remaining when incubated in human liver microsomes with NADPH: 55.85%
[5]; human liver microsomes, 60 min
  % of compound remaining when incubated in human liver microsomes with NADPH: 53.78%
[5]
  half-life: 0.902 h
[2]; 0 min
  Microsomal stability, % remaining: 100.00%
  % of compound remaining when incubated in rat liver microsomes with NADPH: 100.00%
[2]; 5 min
  Microsomal stability, % remaining: 92.34%
  % of compound remaining when incubated in rat liver microsomes with NADPH: 92.34%
[2]; 10 min
  Microsomal stability, % remaining: 87.59%
  % of compound remaining when incubated in rat liver microsomes with NADPH: 87.59%
[2]; 15 min
  Microsomal stability, % remaining: 86.13%
  % of compound remaining when incubated in rat liver microsomes with NADPH: 86.13%
[2]; 30 min
  Microsomal stability, % remaining: 71.97%
  % of compound remaining when incubated in rat liver microsomes with NADPH: 71.97%
[2]; 45 min
  Microsomal stability, % remaining: 65.40%
  % of compound remaining when incubated in rat liver microsomes with NADPH: 65.40%
[2]; 60 min
  Microsomal stability, % remaining: 61.79%
  % of compound remaining when incubated in rat liver microsomes with NADPH: 61.79%
[2]
  microsomal stability (in words): improved stability over MI-219
  half-life: 1.24 h
[6]; [10]
  IC50: < 2 µM
[6]; [11]
  IC50: 4.1 ± 0.2 µM

## CN1CCN(CCCNC(=O)[C@@H]2N[C@H](CC(C)(C)C)[C@]3(C(=O)Nc4cc(Cl)c(F)cc43)[C@H]2c2cccc(Cl)c2)CC1 [MI-751]
[3]
  IC50: < 1 µM
[4]; [7]
  IC50: 6.2 ± 1.2 µM
[4]; [8]
  IC50: 1 ± 0.2 µM
[2]; Table 17, 0 min
  % of compound remaining when incubated in rat liver microsomes: 100%
[2]; Table 17, 4 min
  % of compound remaining when incubated in rat liver microsomes: 83.1%
[2]; Table 17, 6 min
  % of compound remaining when incubated in rat liver microsomes: 62.9%
[2]; Table 17, 10 min
  % of compound remaining when incubated in rat liver microsomes: 50.1%
[2]; Table 17, 15 min
  % of compound remaining when incubated in rat liver microsomes: 41.6%
[2]; Table 17, 30 min
  % of compound remaining when incubated in rat liver microsomes: 31.1%
[6]; [10]
  IC50: 0.7 ± 0.2 µM
[6]; [11]
  IC50: 3.9 ± 0.9 µM

## CC(C)(C)C[C@H]1N[C@@H](C(=O)NCCC2CCC(O)C2)[C@H](c2cccc(Cl)c2)[C@@]12C(=O)Nc1cc(Cl)c(F)cc12 (stereo partly shown) [MI-225]
[1]; male rats, oral dose 25 mg/kg
  % F: 44%
  AUC(0-t): 7207 ± 1492
  Cmax: 1913 ± 312 ng/mL
  T1/2: 1.51 ± 0.12 h
[1]
  oral bioavailability / oral pharmacokinetics in rats (in words): good oral bioavailability
[2]; Table 16, 0 min
  % of compound remaining when incubated in rat liver microsomes: 100%
[2]; Table 16, 4 min
  % of compound remaining when incubated in rat liver microsomes: 63.1%
[2]; Table 16, 6 min
  % of compound remaining when incubated in rat liver microsomes: 56.6%
[2]; Table 16, 10 min
  % of compound remaining when incubated in rat liver microsomes: 44.4%
[2]; Table 16, 15 min
  % of compound remaining when incubated in rat liver microsomes: 30.9%
[2]; Table 16, 30 min
  % of compound remaining when incubated in rat liver microsomes: 30.2%
[2]
  microsomal stability (in words): inferior microsomal stability to MI-219

## CC(C)(C)C[C@H]1N[C@@H](C(=O)NCCCN2CCN(C3CC3)CC2)[C@H](c2cccc(Cl)c2F)[C@@]12C(=O)Nc1cc(Cl)ccc12 [MI-519-47]
[3]
  IC50: < 10 µM
[4]; [7]
  IC50: 7.8 ± 0.9 µM
[4]; [8]
  IC50: 1.1 ± 0.2 µM
[2]; Table 17, 0 min
  % of compound remaining when incubated in rat liver microsomes: 100%
[2]; Table 17, 4 min
  % of compound remaining when incubated in rat liver microsomes: 80.1%
[2]; Table 17, 6 min
  % of compound remaining when incubated in rat liver microsomes: 61.1%
[2]; Table 17, 10 min
  % of compound remaining when incubated in rat liver microsomes: 45.3%
[2]; Table 17, 15 min
  % of compound remaining when incubated in rat liver microsomes: 38.1%
[2]; Table 17, 30 min
  % of compound remaining when incubated in rat liver microsomes: 34.3%
[6]; [10]
  IC50: 1.1 ± 0.3 µM
[6]; [11]
  IC50: 5.7 ± 0.6 µM
[6]; [12]
  IC50: 1.1 µM

## CC(C)(C)C[C@H]1N[C@@H](C(=O)N[C@H]2CC[C@@H](O)C2)[C@H](c2cccc(Cl)c2)[C@@]12C(=O)Nc1cc(Cl)c(F)cc12 [MI-519-27]
[3]
  IC50: < 1 µM
[4]; [7]
  IC50: > 10 µM
[4]; [8]
  IC50: < 2 µM
[5]; human liver microsomes, 0 min
  % of compound remaining when incubated in human liver microsomes with NADPH: 100.00%
[5]; human liver microsomes, 5 min
  % of compound remaining when incubated in human liver microsomes with NADPH: 52.96%
[5]; human liver microsomes, 10 min
  % of compound remaining when incubated in human liver microsomes with NADPH: 25.03%
[5]; human liver microsomes, 15 min
  % of compound remaining when incubated in human liver microsomes with NADPH: 11.38%
[5]; human liver microsomes, 30 min
  % of compound remaining when incubated in human liver microsomes with NADPH: 2.30%
[5]; human liver microsomes, 45 min
  % of compound remaining when incubated in human liver microsomes with NADPH: 1.42%
[5]; human liver microsomes, 60 min
  % of compound remaining when incubated in human liver microsomes with NADPH: 0.77%
[5]
  half-life: 0.0833 h
[2]; 0 min
  % of compound remaining when incubated in rat liver microsomes with NADPH: 100.00%
[2]; 5 min
  % of compound remaining when incubated in rat liver microsomes with NADPH: 57.28%
[2]; 10 min
  % of compound remaining when incubated in rat liver microsomes with NADPH: 31.78%
[2]; 15 min
  % of compound remaining when incubated in rat liver microsomes with NADPH: 19.34%
[2]; 30 min
  % of compound remaining when incubated in rat liver microsomes with NADPH: 5.81%
[2]; 45 min
  % of compound remaining when incubated in rat liver microsomes with NADPH: 2.49%
[2]; 60 min
  % of compound remaining when incubated in rat liver microsomes with NADPH: 2.13%
[2]
  half-life: 0.101 h
[6]; [10]
  IC50: < 2 µM
[6]; [11]
  IC50: > 5 µM
[6]; [12]
  IC50: < 3 µM

Source: US9079913B2, “Spiro-oxindole MDM2 antagonists” (The Regents of the University of Michigan, priority 2009, dated 2015)
